In ChEMBL document CHEMBL3585263, “Novel Octahydropyrrolo[3,4-c]pyrroles Are Selective Orexin-2 Antagonists: SAR Leading to a Clinical Candidate” (J Med Chem, 2015):
In brackets after ≈: the same amount, converted by molar mass.

Legend:
[1] = biological target: T1, Orexin/Hypocretin receptor type 1 (Homo sapiens, UniProt O43613); test: Binding affinity to human OX1 receptor expressed in CHO cell membranes by scintillation counting analysis
T1 sequence (O43613 whole entry): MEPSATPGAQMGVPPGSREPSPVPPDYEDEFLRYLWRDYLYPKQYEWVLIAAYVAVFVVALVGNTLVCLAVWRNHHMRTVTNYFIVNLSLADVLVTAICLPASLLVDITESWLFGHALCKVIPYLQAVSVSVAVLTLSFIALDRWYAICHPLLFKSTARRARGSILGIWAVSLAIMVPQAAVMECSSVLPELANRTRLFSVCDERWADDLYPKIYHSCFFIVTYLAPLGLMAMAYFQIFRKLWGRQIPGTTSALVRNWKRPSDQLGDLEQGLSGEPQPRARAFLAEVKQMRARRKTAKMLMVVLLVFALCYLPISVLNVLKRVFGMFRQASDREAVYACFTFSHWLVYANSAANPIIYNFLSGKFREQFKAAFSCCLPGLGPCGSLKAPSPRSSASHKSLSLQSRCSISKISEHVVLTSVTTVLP

[2] = Chemical stability of the compound assessed as compound remaining at ambient relative humidity at 22 degC after 4 weeks by HPLC analysis; type: physicochemical; conditions: read-out: Stability
[3] = test system: Plasma; test: Fraction unbound in human plasma at 0.1 to 10 uM after 6 hrs by equilibrium dialysis method; type: ADME, cell-free
[4] = Chemical stability of the compound in pH 7.4 phosphate buffer assessed as compound remaining at room temperature after 1 week by HPLC analysis; type: physicochemical; conditions: read-out: Stability
[5] = biological target: T2, Orexin receptor type 2 (Rattus norvegicus, UniProt P56719); test: Binding affinity to rat OX2 receptor
T2 sequence (P56719 whole entry): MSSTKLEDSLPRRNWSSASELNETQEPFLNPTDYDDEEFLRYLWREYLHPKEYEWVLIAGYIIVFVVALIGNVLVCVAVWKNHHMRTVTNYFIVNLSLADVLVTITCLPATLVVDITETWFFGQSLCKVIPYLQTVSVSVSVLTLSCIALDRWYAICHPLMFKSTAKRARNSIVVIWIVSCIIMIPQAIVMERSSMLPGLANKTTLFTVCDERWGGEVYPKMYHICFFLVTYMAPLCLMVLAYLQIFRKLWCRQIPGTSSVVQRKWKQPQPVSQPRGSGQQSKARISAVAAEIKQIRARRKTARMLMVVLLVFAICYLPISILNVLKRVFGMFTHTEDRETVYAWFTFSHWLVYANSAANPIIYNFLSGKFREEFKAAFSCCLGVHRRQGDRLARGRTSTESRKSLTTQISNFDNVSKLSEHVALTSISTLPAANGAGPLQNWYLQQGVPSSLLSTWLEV

[6] = test system: Rattus norvegicus; test: Effect on REM sleep time in rat electroencephalographic model at 1 to 30 mg/kg, po administered at onset of dark phase measured for 2 hrs by telemetry device; type: ADME, organism-based; conditions: in vivo
[7] = Physical stability of the compound at 75% relative humidity at 40 degC after 4 weeks by PXRD analysis; type: physicochemical; conditions: 672 h
[8] = Volume of distribution at steady state in beagle dog at 10 mg/kg, po and 1 mg/kg, iv; type: ADME, organism-based, Canis lupus familiaris; conditions: in vivo, read-out: Vdss
[9] = Chemical stability of the compound in pH 7.4 phosphate buffer assessed as compound remaining at 60 degC after 4 weeks by HPLC analysis; type: physicochemical; conditions: read-out: Stability
[10] = Fraction unbound in mouse plasma at 0.1 to 10 uM after 6 hrs by equilibrium dialysis method; type: ADME, cell-free
[11] = Clearance in Balb/c mouse at 10 mg/kg, po and 1 mg/kg, iv; type: ADME, organism-based; conditions: in vivo
[12] = Oral bioavailability in beagle dog at 10 mg/kg; type: ADME, organism-based, Canis lupus familiaris; conditions: in vivo
[13] = Half life in cynomolgus monkey at 1 mg/kg, iv; type: ADME, organism-based, Macaca fascicularis; conditions: in vivo
[14] = Protein binding in rat brain at 5 uM after 5 hrs by equilibrium dialysis method; type: ADME, tissue-based; conditions: read-out: PB (converted)
[15] = Chemical stability of the compound in pH 4 acetate buffer assessed as compound remaining at room temperature after 4 weeks by HPLC analysis; type: physicochemical; conditions: read-out: Stability
[16] = Chemical stability of the compound in pH 2 phosphate buffer assessed as compound remaining at room temperature after 4 weeks by HPLC analysis; type: physicochemical; conditions: read-out: Stability
[17] = Chemical stability of the compound assessed as compound remaining at ambient relative humidity at 80 degC after 4 weeks by HPLC analysis; type: physicochemical; conditions: read-out: Stability
[18] = Chemical stability of the compound in pH 2 phosphate buffer assessed as compound remaining at room temperature after 1 week by HPLC analysis; type: physicochemical; conditions: read-out: Stability
[19] = test system: Plasma; test: Plasma protein binding in rat at 1 uM after 6 hrs by equilibrium dialysis method; type: ADME, cell-free; conditions: 6 h, 1 µM
[20] = Chemical stability of the compound in pH 10 carbonate buffer assessed as compound remaining at room temperature after 1 week by HPLC analysis; type: physicochemical; conditions: read-out: Stability
[21] = Chemical stability of the compound in pH 4 acetate buffer assessed as compound remaining at 60 degC after 1 week by HPLC analysis; type: physicochemical; conditions: read-out: Stability
[22] = Physical stability of the compound at ambient relative humidity at 22 degC after 4 weeks by PXRD analysis; type: physicochemical; conditions: 672 h
[23] = Volume of distribution at steady state in cynomolgus monkey at 10 mg/kg, po and 1 mg/kg, iv; type: ADME, organism-based, Macaca fascicularis; conditions: in vivo, read-out: Vdss
[24] = Volume of distribution at steady state in Sprague-Dawley rat at 10 mg/kg, po and 1 mg/kg, iv; type: ADME, organism-based; conditions: in vivo, read-out: Vdss
[25] = Chemical stability of the compound in pH 10 carbonate buffer assessed as compound remaining at room temperature after 4 weeks by HPLC analysis; type: physicochemical; conditions: read-out: Stability
[26] = Clearance in beagle dog at 10 mg/kg, po and 1 mg/kg, iv; type: ADME, organism-based, Canis lupus familiaris; conditions: in vivo
[27] = Chemical stability of the compound in pH 2 phosphate buffer assessed as compound remaining at 60 degC after 1 week by HPLC analysis; type: physicochemical; conditions: read-out: Stability
[28] = Chemical stability of the compound in pH 4 acetate buffer assessed as compound remaining at room temperature after 1 week by HPLC analysis; type: physicochemical; conditions: read-out: Stability
[29] = Clearance in Sprague-Dawley rat at 10 mg/kg, po and 1 mg/kg, iv; type: ADME, organism-based; conditions: in vivo
[30] = Chemical stability of the compound in pH 10 carbonate buffer assessed as compound remaining at 60 degC after 4 weeks by HPLC analysis; type: physicochemical; conditions: read-out: Stability
[31] = Fraction unbound in cynomolgus monkey plasma at 0.1 to 10 uM after 6 hrs by equilibrium dialysis method; type: ADME, cell-free, Macaca fascicularis
[32] = Oral bioavailability in cynomolgus monkey at 10 mg/kg; type: ADME, organism-based, Macaca fascicularis; conditions: in vivo
[33] = Fraction unbound in beagle dog plasma at 0.1 to 10 uM after 6 hrs by equilibrium dialysis method; type: ADME, cell-free, Canis lupus familiaris
[34] = Half life in Balb/c mouse at 1 mg/kg, iv; type: ADME, organism-based; conditions: in vivo
[35] = Chemical stability of the compound assessed as compound remaining at 75% relative humidity at 40 degC after 4 weeks by HPLC analysis; type: physicochemical; conditions: read-out: Stability
[36] = Clearance in cynomolgus monkey at 10 mg/kg, po and 1 mg/kg, iv; type: ADME, organism-based, Macaca fascicularis; conditions: in vivo
[37] = Volume of distribution at steady state in Balb/c mouse at 10 mg/kg, po and 1 mg/kg, iv; type: ADME, organism-based; conditions: in vivo, read-out: Vdss
[38] = test system: Plasma; test: Plasma protein binding in human at 1 uM after 6 hrs by equilibrium dialysis method; type: ADME, cell-free; conditions: 6 h, 1 µM
[39] = Oral bioavailability in Sprague-Dawley rat at 10 mg/kg; type: ADME, organism-based; conditions: in vivo
[40] = Chemical stability of the compound in pH 2 phosphate buffer assessed as compound remaining at 60 degC after 4 weeks by HPLC analysis; type: physicochemical; conditions: read-out: Stability
[41] = Chemical stability of the compound in pH 4 acetate buffer assessed as compound remaining at 60 degC after 4 weeks by HPLC analysis; type: physicochemical; conditions: read-out: Stability
[42] = test system: Rattus norvegicus; test: Reduction in NREM sleep latency in po dosed rat electroencephalographic model administered at onset of dark phase by telemetry device; type: functional, organism-based
[43] = Physical stability of the compound at ambient relative humidity at 80 degC after 4 weeks by PXRD analysis; type: physicochemical; conditions: 672 h
[44] = Half life in beagle dog at 1 mg/kg, iv; type: ADME, organism-based, Canis lupus familiaris; conditions: in vivo
[45] = Oral bioavailability in Balb/c mouse at 10 mg/kg; type: ADME, organism-based; conditions: in vivo
[46] = test system: Rattus norvegicus; test: Ex vivo OX2 receptor occupancy in po dosed Sprague-Dawley rat brain after 15 mins by autoradiographic analysis; type: functional, organism-based
[47] = test system: Plasma; test: Fraction unbound in rat plasma at 0.1 to 10 uM after 6 hrs by equilibrium dialysis method; type: ADME, cell-free
[48] = Half life in Sprague-Dawley rat at 1 mg/kg, iv; type: ADME, organism-based; conditions: in vivo
[49] = Chemical stability of the compound in pH 7.4 phosphate buffer assessed as compound remaining at room temperature after 4 weeks by HPLC analysis; type: physicochemical; conditions: read-out: Stability
[50] = test system: Rattus norvegicus; test: Ex vivo OX2 receptor occupancy in Sprague-Dawley rat brain at 30 mg/kg, po after 15 mins by autoradiographic analysis; type: functional
[51] = test system: Rattus norvegicus; test: Increase in NREM sleep time in po dosed rat electroencephalographic model administered at onset of dark phase measured for 2 hrs by telemetry device; type: functional, organism-based
[52] = Chemical stability of the compound in pH 7.4 phosphate buffer assessed as compound remaining at 60 degC after 1 week by HPLC analysis; type: physicochemical; conditions: read-out: Stability
[53] = Chemical stability of the compound in pH 10 carbonate buffer assessed as compound remaining at 60 degC after 1 week by HPLC analysis; type: physicochemical; conditions: read-out: Stability

## COc1cccc(OC)c1C(=O)N1CCCN(c2nc3ccc(Cl)cc3s2)CC1
[1]
  Ki: 216 nM

## Cc1cc(C)nc(N2C[C@H]3CN(C(=O)c4c(F)cccc4-n4nccn4)C[C@H]3C2)n1 [SELTOREXANT]
[2]
  remaining at 672 h: 100%
[3]
  Fu: 2.9%
[4]
  remaining at 168 h: 101%
[5]
  Ki: 10 nM
[6]
  Activity: Non-toxic
[7]
  Stability: Stable
[8]
  Vd: 0.7 L/kg
[9]
  remaining at 672 h: 99.8%
[10]
  fraction unbound at 6 h: 0.041
[11]
  clearance: 36 mL/min/kg
[12]
  bioavailability: 19%
[13]
  half-life: 24 min
[14]
  fraction unbound at 5 h, 5 µM: 0.119
[15]
  remaining at 672 h: 101%
[16]
  remaining at 672 h: 102%
[17]
  remaining at 672 h: 100%
[18]
  remaining at 168 h: 100%
[19]
  PPB: 92.7%
[20]
  remaining at 168 h: 101%
[21]
  remaining at 168 h: 99.4%
[22]
  Stability: Stable
[23]
  Vd: 0.4 L/kg
[24]
  Vd: 0.7 L/kg
[25]
  remaining at 672 h: 102%
[26]
  clearance: 9.8 mL/min/kg
[27]
  remaining at 168 h: 101%
[28]
  remaining at 168 h: 99.7%
[29]
  clearance: 40 mL/min/kg
[30]
  remaining at 672 h: 102%
[31]
  fraction unbound at 6 h: 0.044
[32]
  bioavailability: 6%
[33]
  fraction unbound at 6 h: 0.096
[34]
  half-life: 12 min
[35]
  remaining at 672 h: 100%
[36]
  clearance: 16 mL/min/kg
[37]
  Vd: 0.6 L/kg
[38]
  PPB: 95.9%
[39]
  bioavailability: 24%
[40]
  remaining at 672 h: 101%
[41]
  remaining at 672 h: 102%
[42]
  Activity: Dose-dependent effect
[43]
  Stability: Stable
[44]
  half-life: 66 min
[45]
  bioavailability: 16%
[46]
  EC50: 0.171 µg/mL (≈ 0.42 µM)
  Occ: Dose-dependent effect
[46]; po
  ED50: 3 mg/kg
[47]
  Fu: 5.6%
[48]
  half-life: 18 min
[49]
  remaining at 672 h: 103%
[50]
  Occ: 71%
[51]
  Activity: Dose-dependent effect
[52]
  remaining at 168 h: 102%
[53]
  remaining at 168 h: 102%
